For experiment [1], the system named is Escherichia coli NIHJ JC-2. The experiment is described as follows: Antibacterial Spectrum, agar dilution method. The class given is cell-based. Conditions: NIHJJC2, inoculum 10^6 cells/ml, sensitivity disc agar, 37° C. overnight, read-out: Minimum Inhibitory Concentration. Here is the method: (§1) Determined by agar dilution method;
(§2) Inoculum size is 10^6 cells/ml;
(§3) Cultivation in sensitivitydisc agar at 37° C. overnight.
For orientation: In agar dilution, organisms are placed on agar that contains the substance at set levels.

Experiment [2] relates to Pseudomonas aeruginosa ATCC 25619. In words: Antibacterial Spectrum, agar dilution method. Format: cell-based. Conditions: ATCC25619, inoculum 10^6 cells/ml, sensitivity disc agar, 37° C. overnight, read-out: Minimum Inhibitory Concentration. Here is the method: as §1, §2, §3
The test system of experiment [3] is Klebsiella pneumoniae SRL-1. The experiment is described as follows: Antibacterial Spectrum, agar dilution method. Format: cell-based. As to conditions: SRL1, inoculum 10^6 cells/ml, sensitivity disc agar, 37° C. overnight, read-out: Minimum Inhibitory Concentration. The protocol: as §1, §2, §3
Experiment [4] relates to Enterobacter cloacae 233. The experiment is described as follows: Antibacterial Spectrum, agar dilution method. The class given is cell-based. Conditions: inoculum 10^6 cells/ml, sensitivity disc agar, 37° C. overnight, read-out: Minimum Inhibitory Concentration. Here is the method: as §1, §2, §3
For experiment [5], the system named is Streptococcus pneumoniae I. The experiment is described as follows: Antibacterial Spectrum, agar dilution method. The class given is cell-based. Conditions: inoculum 10^6 cells/ml, sensitivity disc agar, 37° C. overnight, read-out: Minimum Inhibitory Concentration. Here is the method: as §1, §2, §3
The subject of experiment [6] is Staphylococcus aureus 209P JC-1. The experiment is described as follows: Antibacterial Spectrum, agar dilution method. The class given is cell-based. Conditions: inoculum 10^6 cells/ml, sensitivity disc agar, 37° C. overnight, read-out: Minimum Inhibitory Concentration. Here is the method: as §1, §2, §3
For experiment [7], the system named is Proteus mirabilis PR-4. In words: Antibacterial Spectrum, agar dilution method. As to conditions: PR4, inoculum 10^6 cells/ml, sensitivity disc agar, 37° C. overnight, read-out: Minimum Inhibitory Concentration. The class given is cell-based. Here is the method: as §1, §2, §3
In experiment [8] the test system is Klebsiella sp. 363(R). In words: Antibacterial Spectrum, agar dilution method. Format: cell-based. Conditions: inoculum 10^6 cells/ml, sensitivity disc agar, 37° C. overnight, read-out: Minimum Inhibitory Concentration. Here is the method:
as §1, §2, §3

Experiment [9] relates to β-lactamase of Klebsiella sp. 363 (penicillinase type). In words: β-Lactamase inhibitory test, penicillinase-type. Conditions: 10 minutes preincubation, room temperature, minimum concentration to inhibit color change of indicator. The class given is biochemical. Here is the method: *2 producing lactamase of penicillinasetype
(§4) *3 The test compound was incubated with enzyme at room temperature for 10
(§5) minutes prior to adding an indicator and the minimum concentration to
(§6) inhibit color change was determined.

Experiment [10] addresses β-lactamase of Enterobacter cloacae 92 (cephalosporinase type) (Enterobacter cloacae, UniProt P05364). The experiment is described as follows: β-Lactamase inhibitory test, cephalosporinase-type. The class given is biochemical. As to conditions: 10 minutes preincubation, room temperature, minimum concentration to inhibit color change of indicator. Here is the method: *1 producing lactamase of cephalosporinasetype
as §4, §5, §6

The source of these data is US4556517A, “Carbapenem derivatives” (Shionogi & Co., Ltd., priority 1981, dated 1985).

≈ marks a conversion by molar mass, not a printed value.

Sequence of β-lactamase of Enterobacter cloacae 92 (cephalosporinase type) (P05364 21-381): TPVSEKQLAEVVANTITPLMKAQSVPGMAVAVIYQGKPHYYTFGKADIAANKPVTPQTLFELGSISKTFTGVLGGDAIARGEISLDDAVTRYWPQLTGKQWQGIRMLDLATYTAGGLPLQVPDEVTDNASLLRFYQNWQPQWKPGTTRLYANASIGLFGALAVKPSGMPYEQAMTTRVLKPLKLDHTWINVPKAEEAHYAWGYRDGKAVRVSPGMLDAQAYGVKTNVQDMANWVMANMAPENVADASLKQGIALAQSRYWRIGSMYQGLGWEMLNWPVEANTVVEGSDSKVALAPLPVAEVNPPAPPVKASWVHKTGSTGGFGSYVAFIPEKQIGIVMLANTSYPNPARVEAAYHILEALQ

Regarding `CC(OS(=O)(=O)O)C1C(=O)N2C(C(=O)O)=C([S+]([O-])CO)CC12` (stereo not drawn) [Dihydro PLM C, 3-hydroxymethylsulfinyl-6-(1-hydroxysulfonyloxyethyl)-7-oxo-1-azabicyclo[3.2.0]-hept-2-ene-2-carboxylic acid], the MIC in experiment [1] is 12.5 µg/mL (≈ 35.2 µM); in [2], above 100 µg/mL; in experiment [3], 25 µg/mL (≈ 70.4 µM); in experiment [4], above 100 µg/mL; in [5] it was 3.1 µg/mL (≈ 8.72 µM); in [6], 12.5 µg/mL (≈ 35.2 µM). Moreover, the values for the MIC in experiment [7] and in [8] were 25 µg/mL (≈ 70.4 µM) and 12.5 µg/mL (≈ 35.2 µM), respectively. Further, the “Minimum Effective Concentration” value in [9] was 0.004 µg/mL; in experiment [10] it was 0.008 µg/mL.
For the molecule `CC(OS(=O)(=O)O)C1C(=O)N2C(C(=O)O)=C(SC(O)O)CC12` (stereo not drawn) [Deoxy PLM C, 3-dihydroxymethylthio-6-(1-hydroxysulfonyloxyethyl)-7-oxo-1-azabicyclo[3.2.0]-hept-2-ene-2-carboxylic acid], the MIC was 0.78 µg/mL (≈ 2.2 µM) in experiment [1]; above 100 µg/mL in [2]; 0.78 µg/mL (≈ 2.2 µM) in experiment [3]; 3.13 µg/mL (≈ 8.81 µM) in experiment [4]; 0.2 µg/mL (≈ 0.563 µM) in experiment [5]; 0.78 µg/mL (≈ 2.2 µM) in experiment [6]. In addition, the MIC in experiment [7] and in [8] was 0.78 µg/mL (≈ 2.2 µM) throughout. Also, the “Minimum Effective Concentration” value in experiment [9] was determined as 0.125 µg/mL; in experiment [10], 0.002 µg/mL.
Consider `CC(OS(=O)(=O)O)C1C(=O)N2C(C(=O)O)=C(SCC(=O)O)CC12` (stereo not drawn) [Deoxy PLM B, 3-Carboxymethylthio-6-(1-hydroxysulfonyloxyethyl)-7-oxo-1-azabicyclo[3.2.0]-hept-2-ene-2-carboxylic acid], for which the MIC in experiment [1] was 1.56 µg/mL (≈ 4.25 µM); in experiment [2] it was above 100 µg/mL; in [3], 0.78 µg/mL (≈ 2.12 µM); in experiment [4] it was 6.25 µg/mL (≈ 17 µM); in [5] it was 1.56 µg/mL (≈ 4.25 µM); in experiment [6], 3.13 µg/mL (≈ 8.52 µM). Moreover, the MIC in experiment [7] amounted to 0.78 µg/mL (≈ 2.12 µM); in [8], 1.56 µg/mL (≈ 4.25 µM). In addition, the “Minimum Effective Concentration” value in experiment [9] worked out at 0.063 µg/mL; in experiment [10], 0.002 µg/mL.
